Source: patent US9169254B2, “Spiroimidazolone derivative” (Chugai Seiyaku Kabushiki Kaisha, priority 2009, dated 2015)

Target: T1, human PTH1 receptor (Homo sapiens, UniProt Q03431)
T1 sequence (Q03431 27-593): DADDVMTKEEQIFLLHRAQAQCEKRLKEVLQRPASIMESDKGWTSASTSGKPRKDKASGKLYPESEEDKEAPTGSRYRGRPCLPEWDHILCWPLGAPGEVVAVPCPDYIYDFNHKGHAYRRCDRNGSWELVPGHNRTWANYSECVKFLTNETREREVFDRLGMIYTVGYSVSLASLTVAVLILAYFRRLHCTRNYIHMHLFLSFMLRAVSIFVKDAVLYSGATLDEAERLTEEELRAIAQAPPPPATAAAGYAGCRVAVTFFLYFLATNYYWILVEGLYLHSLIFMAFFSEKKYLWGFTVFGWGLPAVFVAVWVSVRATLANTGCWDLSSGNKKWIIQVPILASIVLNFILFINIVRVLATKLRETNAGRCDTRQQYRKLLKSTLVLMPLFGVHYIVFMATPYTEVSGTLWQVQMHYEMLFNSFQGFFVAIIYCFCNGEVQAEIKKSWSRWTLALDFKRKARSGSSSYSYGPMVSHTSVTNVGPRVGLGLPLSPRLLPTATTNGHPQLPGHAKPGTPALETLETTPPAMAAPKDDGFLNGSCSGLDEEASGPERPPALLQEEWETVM
Experiment: In vitro cAMP signal activity in HKRK-B7 cells (LLC-PK1 cells overexpressing the human PTH1 receptor)
Format: cell-based
Conditions: HKRK-B7 cells; compound at 1×10^−3 M; cAMP produced as percentage of that produced by hPTH(1-34) at 100 nM

## CC(=O)NCCNC(=O)CNc1ccc(/C=C/S(=O)(=O)N2CCC3(CC2)N=C(C2CCCCC2)NC3=O)c(C(F)(F)F)c1 [Compound 498, N-(2-acetylamino-ethyl)-2-{4-[(E)-2-(2-cyclohexyl-4-oxo-1,3,8-triaza-spiro[4.5]dec-1-ene-8-sulfonyl)-vinyl]-3-trifluoromethyl-phenylamino}-acetamide]
  cAMP production activity (%): 53%

## Cc1cc(C(=O)N2CCC(O)(CO)CC2)cc(C)c1CCS(=O)(=O)N1CCC2(CC1)N=C(c1cccc(OC(F)(F)F)c1)NC2=O [Compound 831, 8-{2-[4-(4-hydroxy-4-hydroxymethyl-piperidine-1-carbonyl)-2,6-dimethyl-phenyl]-ethanesulfonyl}-2-(3-trifluoromethoxy-phenyl)-1,3,8-triaza-spiro[4.5]dec-1-en-4-one]
  cAMP production activity (%): 4.7%

## Cc1cc(N2C(=O)CC[C@@H]2CO)cc(C)c1/C=C/S(=O)(=O)N1CCC2(CC1)N=C(c1cccc(OC(F)(F)F)c1)NC2=O [Compound 258, 8-{(E)-2-[4-((R)-2-hydroxymethyl-5-oxo-pyrrolidin-1-yl)-2,6-dimethyl-phenyl]-ethenesulfonyl}-2-(3-trifluoromethoxy-phenyl)-1,3,8-triaza-spiro[4.5]dec-1-en-4-one]
  cAMP production activity (%): 87%

## Cc1cc(C(=O)N2CCC(C)(O)CC2)cc(C)c1/C=C/S(=O)(=O)N1CCC2(CC1)N=C(c1ccc(OC(C)(C)C(F)(F)F)c(C(F)(F)F)c1)NC2=O [Compound 1197, 8-{(E)-2-[4-(4-hydroxy-4-methyl-piperidine-1-carbonyl)-2,6-dimethyl-phenyl]-ethenesulfonyl}-2-[4-(2,2,2-trifluoro-1,1-dimethyl-ethoxy)-3-trifluoromethyl-phenyl]-1,3,8-triaza-spiro[4.5]dec-1-en-4-one]
  cAMP production activity (%): 74%

## CC(=O)N(C[C@H](O)CO)c1cc(C)c(/C=C/S(=O)(=O)N2CCC3(CC2)N=C(CCCCCCCCC(F)(F)F)NC3=O)c(C)c1 [Compound 707, N—((S)-2,3-Dihydroxy-propyl)-N-(3,5-dimethyl-4-{(E)-2-[4-oxo-2-(9,9,9-trifluoro-nonyl)-1,3,8-triaza-spiro[4.5]dec-1-ene-8-sulfonyl]-vinyl}-phenyl)-acetamide]
  cAMP production activity (%): 124%

## Cc1cc2[nH]c(=O)oc2c(C)c1CCS(=O)(=O)N1CCC2(CC1)N=C([C@H]1CC[C@H](C)CC1)NC2=O [Compound 671, 8-[2-(5,7-Dimethyl-2-oxo-2,3-dihydro-benzoxazol-6-yl)-ethanesulfonyl]-2-(4-methyl-cyclohexyl)-1,3,8-triaza-spiro[4.5]dec-1-en-4-one]
  cAMP production activity (%): 81%

## Cc1cc(C(=O)N2CCN(C(C)C)CC2)ccc1/C=C/S(=O)(=O)N1CCC2(CC1)N=C(c1cccc(OC(F)(F)F)c1)NC2=O [Compound 598, 8-{(E)-2-[4-(4-isopropyl-piperazine-1-carbonyl)-2-methyl-phenyl]-ethenesulfonyl}-2-(3-trifluoromethoxy-phenyl)-1,3,8-triaza-spiro[4.5]dec-1-en-4-one]
  cAMP production activity (%): 74%

## Cc1cc(OCCC(O)CO)cc(C)c1CCS(=O)(=O)N1CCC2(CC1)N=C(c1cccc(OC(F)(F)F)c1)NC2=O (centres unmarked) [Compound 676, 8-{2-[4-(3,4-dihydroxy-butoxy)-2,6-dimethyl-phenyl]-ethanesulfonyl}-2-(3-trifluoromethoxy-phenyl)-1,3,8-triaza-spiro[4.5]dec-1-en-4-one]
  cAMP production activity (%): 69%

## Cc1cc(N2C(=O)CNC2=O)ccc1/C=C/S(=O)(=O)N1CCC2(CC1)N=C(c1cccc(OC(F)(F)F)c1)NC2=O [Compound 618, 3-(3-methyl-4-{(E)-2-[4-oxo-2-(3-trifluoromethoxy-phenyl)-1,3,8-triaza-spiro[4.5]dec-1-ene-8-sulfonyl]-vinyl}-phenyl)-imidazolidine-2,4-dione]
  cAMP production activity (%): 121%

## CC(=O)N(C)c1ccc(/C=C/S(=O)(=O)N2CCC3(CC2)N=C(c2cccc(OC(F)(F)F)c2)NC3=O)c(C)c1 [Compound 237, N-methyl-N-(3-methyl-4-{(E)-2-[4-oxo-2-(3-trifluoromethoxy-phenyl)-1,3,8-triaza-spiro[4.5]dec-1-ene-8-sulfonyl]-vinyl}-phenyl)-acetamide]
  cAMP production activity (%): 74%

## Cc1cc(OC[C@H](O)CO)cc(C)c1CCS(=O)(=O)N1CCC2(CC1)N=C(c1ccc3c(c1)OC(F)(F)O3)NC2=O [Compound 1330, 2-(2,2-difluoro-benzo[1,3]dioxol-5-yl)-8-{2-[4-((R)-2,3-dihydroxy-propoxy)-2,6-dimethyl-phenyl]-ethanesulfonyl}-1,3,8-triaza-spiro[4.5]dec-1-en-4-one]
  cAMP production activity (%): 9.2%

## Cc1cc2ccc1CCS(=O)(=O)N1CCC3(CC1)N=C(NC3=O)c1cc(cc(C(F)(F)F)c1)OCC/C=C/CCCCCN(C)C2=O [Compound 1413]
  cAMP production activity (%): 57%

## CC1CCCCC1C1=NC2(CCN(S(=O)(=O)c3cccc(Cl)c3)CC2)C(=O)N1 (centres unmarked) [Compound 20, 8-(3-chloro-benzenesulfonyl)-2-(2-methyl-cyclohexyl)-1,3,8-triaza-spiro[4.5]dec-1-en-4-one]
  cAMP production activity (%): 38%

## CNc1cc(C)c(/C=C/[S@TB3](=O)(=O)N2CCC3(CC2)N=C(CCCCCCCCCO)NC3=O)c(C)c1 [Compound 1107, 8-[(E)-2-(2,6-dimethyl-4-methylamino-phenyl)-ethenesulfonyl]-2-(9-hydroxy-nonyl)-1,3,8-triaza-spiro[4.5]dec-1-en-4-one]
  cAMP production activity (%): 24%

## Cc1cc(C(=O)N2CCC(OC[C@H](O)CO)CC2)cc(C)c1CCS(=O)(=O)N1CCC2(CC1)N=C(C1CCC(CCC(F)(F)F)CC1)NC2=O (stereo partly drawn) [Compound 1384, 8-(2-{4-[4-((R)-2,3-dihydroxy-propoxy)-piperidine-1-carbonyl]-2,6-dimethyl-phenyl}-ethanesulfonyl)-2-[4-(3,3,3-trifluoro-propyl)-cyclohexyl]-1,3,8-triaza-spiro[4.5]dec-1-en-4-one]
  cAMP production activity (%): 78%

## Cc1cc(C(=O)N2CC3(COC3)C2)cc(C)c1/C=C/S(=O)(=O)N1CCC2(CC1)N=C(c1ccc(F)c(C(F)(F)F)c1)NC2=O [Compound 967, 8-{(E)-2-[2,6-Dimethyl-4-(2-oxa-6-aza-spiro[3.3]heptane-6-carbonyl)-phenyl]-ethenesulfonyl}-2-(4-fluoro-3-trifluoromethyl-phenyl)-1,3,8-triaza-spiro[4.5]dec-1-en-4-one]
  cAMP production activity (%): 44%

## CNc1cc(C)c(/C=C/S(=O)(=O)N2CCC3(CC2)N=C(c2cccc(SC(F)(F)F)c2)NC3=O)c(C)c1 [Compound 1016, 8-[(E)-2-(2,6-Dimethyl-4-methylamino-phenyl)-ethenesulfonyl]-2-(3-trifluoromethylsulfanyl-phenyl)-1,3,8-triaza-spiro[4.5]dec-1-en-4-one]
  cAMP production activity (%): 92%

## Cc1cc(N2C(=O)CC[C@H]2CO)ccc1CCS(=O)(=O)N1CCC2(CC1)N=C(c1ccc(F)c(C(F)(F)F)c1)NC2=O [Compound 858, 2-(4-fluoro-3-trifluoromethyl-phenyl)-8-{2-[4-((S)-2-hydroxymethyl-5-oxo-pyrrolidin-1-yl)-2-methyl-phenyl]-ethanesulfonyl}-1,3,8-triaza-spiro[4.5]dec-1-en-4-one]
  cAMP production activity (%): 100%

## CCCCCCCCCC1=NC2(CCN(S(=O)(=O)CCc3ccc(N4C(=O)CC[C@H]4CO)cc3C)CC2)C(=O)N1 [Compound 670, 8-{2-[4-((S)-2-Hydroxymethyl-5-oxo-pyrrolidin-1-yl)-2-methyl-phenyl]-ethanesulfonyl}-2-nonyl-1,3,8-triaza-spiro[4.5]dec-1-en-4-one]
  cAMP production activity (%): 123%

## Cc1cc(N(C)C(N)=O)cc(C)c1/C=C/S(=O)(=O)N1CCC2(CC1)N=C(c1cccc(OC(F)(F)F)c1)NC2=O [Compound 1015, 1-(3,5-dimethyl-4-{(E)-2-[4-oxo-2-(3-trifluoromethoxy-phenyl)-1,3,8-triaza-spiro[4.5]dec-1-ene-8-sulfonyl]-vinyl}-phenyl)-1-methyl-urea]
  cAMP production activity (%): 83%

## CC[S+]([O-])CCCCCCC1=NC2(CCN(S(=O)(=O)CCc3c(C)cc(N(C)C(N)=O)cc3C)CC2)C(=O)N1 (centres unmarked) [Compound 1317, 1-(4-{2-[2-(6-ethanesulfinyl-hexyl)-4-oxo-1,3,8-triaza-spiro[4.5]dec-1-ene-8-sulfonyl]-ethyl}-3,5-dimethyl-phenyl)-1-methyl-urea]
  cAMP production activity (%): 3.4%

## Cc1cc(N2C(=O)CC[C@@H]2COCCO)cc(C)c1/C=C/S(=O)(=O)N1CCC2(CC1)N=C(C1CCCCC1)NC2=O [Compound 710, 2-cyclohexyl-8-((E)-2-{4-[(R)-2-(2-hydroxy-ethoxymethyl)-5-oxo-pyrrolidin-1-yl]-2,6-dimethyl-phenyl}-ethenesulfonyl)-1,3,8-triaza-spiro[4.5]dec-1-en-4-one]
  cAMP production activity (%): 76%

## CCCS(=O)(=O)N1CCCC(C2=NC3(CCN(S(=O)(=O)c4cccc(Cl)c4)CC3)C(=O)N2)C1 (centres unmarked) [Compound 40, 8-(3-chloro-benzenesulfonyl)-2-[1-(propane-1-sulfonyl)-piperidin-3-yl]-1,3,8-triaza-spiro[4.5]dec-1-en-4-one]
  cAMP production activity (%): 19%
